According to US9758541B2 (priority 2013, dated 2017):

System: Mia-PaCa cells (pancreatic cancer cells)
Conditions: read-out: IC50 (μM) of P53, Table 2, 72 h exposure, MTS

“2-ferrocenyl-1,1-bis-(4-hydroxyphenyl)-5-hydroxy-pent-1-ene [P53]” was tested, and the IC50 was 1.23 µM.

System: MDA-MB-231 cells (non-hormone-dependent breast cancer cells)
Assay type: cell-based
Conditions: not given

Point of comparison: “2-ferrocenyl-1,1-bis-(4-hydroxyphenyl)-5-dimethylamino-pent-1-ene [P697]”, IC50 2.53 µM. Against it:
- 1,1-bis-(4-hydroxyphenyl)-5-hydroxy-2-ruthenocenyl-pent-1-en [W3] — 4.9-fold higher, 12.5 µM
- 2,3-Dihydro-3-hydroxy-2-[4-ferrocenyl-5,5-bis-(4-hydroxyphenyl)-pent-4-enyl]-1H-isoindol-1-one [P710] — 4.3-fold lower, 0.59 µM
- 2,3-Dihydro-3-methoxy-2-[5-ferrocenyl-6,6-bis-(4-hydroxyphenyl)-hex-5-enyl]-1H-isoindol-1-one [P727] — 1.6-fold lower, 1.63 µM
- 2-ferrocenyl-1-(4-hydroxyphenyl)-5-hydroxy-1-phenyl-pent-1-ene [P681] — 2.1-fold lower, 1.22 µM
- Ethyl 3-ene-3-ferrocenyl-4,4-bis-(4-hydroxyphenyl)-butanoate [P64] — 2.2-fold lower, 1.16 µM
- Methyl 6-ene-6-ferrocenyl-7,7-bis-(4-hydroxyphenyl)-heptanoate [P504] — 4.1-fold lower, 0.62 µM
- N-{4-ferrocenyl-5,5-bis-(4-hydroxyphenyl)-pent-4-enyl}phthalimide [P686] — 13-fold lower, 0.2 µM
- N-{5-ferrocenyl-6,6-bis-(4-hydroxyphenyl)-hex-5-enyl}phthalimide [P720] — 7.7-fold lower, 0.33 µM

System: PC3 cells (non-hormone-dependent prostate cancer cells)
Conditions: read-out: IC50 (μM) of P53, Table 2, 72 h exposure, MTS

For “2-ferrocenyl-1,1-bis-(4-hydroxyphenyl)-5-hydroxy-pent-1-ene [P53]”, the IC50 was 4.43 µM.
